Measured values published in US20050163778A1, “Extracorporeal photopheresis in combination with anti-TNF treatment” (priority 2003, published 2005).

Test system: TNFα production by monocyte-derived dendritic cells
Assay: Examples 2-4: TNFα production by LPS-stimulated monocyte-derived dendritic cells (ELISA of culture supernatants)
Assay type: cell-based, human
Settings: 48 hours
Method: In examples 1-5, Monocyte-derived dendritic cells were obtained as follows: PBMC were isolated from the peripheral blood of healthy donors by fractionation over Ficoll-Hypaque gradient centrifugation. Monocytes were positively selected using the MACS CD14 isolation kit and the Automacs system (Miltenyi Biotec, Germany). CD14^+ monocytes were cultured in complete RPMI supplemented with 40 ng/ml IL-4 and GM-CSF (R&D Systems) for 5 days. Cytokine secretion was induced by stimulation of the dendritic cells with lypopolysacharides (“LPS”, Sigma). Standard ELISA procedures were used to measure TNFα and IL-12 (R&D Systems) levels in culture supernatants.
Culture supernatants were harvested from these cultures at 48 hours for measurement of TNFα production. […] While each of these treatments represent a reduction from the baseline value of over 1000 pg/ml, the levels dropped to an average of less than 50 pg/ml when the method of the invention was used.
Culture supernatants were harvested from these cultures at 48 hours for quantitation of TNFα production. […] While each of these treatments represent a reduction from the baseline value of over 2300 pg/ml, the levels dropped to about 100 pg/ml when the method of the invention was used.
Culture supernatants were harvested from these cultures at 48 hours for measurement of TNFα production. Another group of dendritic cells were similarly treated and the culture supernatants were harvested from these cultures at 48 hours for quantitation of TNFα production.

## infliximab [Remicade mAb]
Example 2, increasing quantities of LPS, Remicade mAb 200 ng/ml, ECP-treated CD15+ cells 5×10^5 cells/well, baseline over 1000 pg/ml
  TNFα in culture supernatant: about 100 pg/ml
Example 3, 0.1 mg/ml LPS, Remicade mAb 200 ng/ml, ECP-treated CD15+ cells 5×10^5 cells/well, baseline over 2300 pg/ml
  TNFα in culture supernatant: about 500 pg/ml
Example 4, 8 ng/ml Remicade mAb, alone or with ECP
  TNFα in culture supernatant: greater than 1300 pg/ml
Example 4, about 2 ng/ml Remicade mAb, alone or with ECP
  TNFα in culture supernatant: ~1000 pg/mL
